Laboratory results as given in ChEMBL document CHEMBL4673337, “Phenolic Constituents of the Roots of Rhamnoneuron balansae with Senolytic Activity” (J Nat Prod, 2020).
The source made the active and inactive calls. The rule behind the calls is not given here.

Legend:
NHDF [1] = test: Cytotoxicity against human dermal fibroblast assessed as reduction in cell viability at 20 uM after 3 days by MTT assay; assay type: cell-based; details: 72 h, time 3 day
NHDF [2] = test: Senolytic activity in 35 passages senescent human dermal fibroblast cells assessed as reduction cell viability at 20 uM after 3 days by MTT assay relative to control; assay type: functional
[3] = biological target: T1, Cyclin-dependent kinase inhibitor 2A (Homo sapiens) (UniProt P42771); test: Inhibition of GFP-tagged p16INK4A (unknown orgin) expressed in human dermal fibroblast at 20 uM after 24 hrs by renilla/firefly dual-luciferase reporter assay relative to control; assay type: cell-based; details: NHDF
T1 sequence (whole entry): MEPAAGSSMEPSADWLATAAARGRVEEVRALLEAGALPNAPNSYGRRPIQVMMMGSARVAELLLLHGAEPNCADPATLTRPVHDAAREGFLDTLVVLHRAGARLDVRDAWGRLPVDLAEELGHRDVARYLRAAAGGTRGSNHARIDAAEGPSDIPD

Structure (SMILES): O=C1c2c(cc(O)c3c2O[C@H](c2ccc(O[C@@H]4O[C@H](CO)[C@@H](O)[C@H](O)[C@H]4O)cc2)[C@H]3c2cc(O)cc(O)c2)O[C@@H](c2ccc(O)c(O)c2)[C@@H]1O
- Activity (NHDF [1]): Non-Toxic

Structure (SMILES): O=C1c2c(cc(O[C@@H]3O[C@H](CO)[C@@H](O)[C@H](O)[C@H]3O)c3c2O[C@H](c2ccc(O)cc2)[C@H]3c2cc(O)cc(O)c2)O[C@@H](c2ccc(O)c(O)c2)[C@@H]1O
- Activity (NHDF [1]): Non-Toxic

Structure (SMILES): O=C1C[C@@H](CCc2cccc(O)c2)Oc2ccccc21
- Activity (NHDF [1]): Non-Toxic

Structure (SMILES): O=C1c2c(cc(O)c3c2O[C@H](c2ccc(O)cc2)[C@H]3c2cc(O)cc(O)c2)O[C@@H](c2ccc(O)cc2)[C@@H]1O
- Activity (NHDF [1]): Non-Toxic

Structure (SMILES): O=C1c2c(cc(O[C@@H]3O[C@H](CO)[C@@H](O)[C@H](O)[C@H]3O)c3c2O[C@H](c2ccc(O)cc2)[C@H]3c2cc(O)cc(O)c2)O[C@H](c2ccc(O)c(O)c2)[C@H]1O
- Activity (NHDF [1]): Non-Toxic

Structure (SMILES): COc1cc(CC[C@@H]2CC(=O)c3ccccc3O2)ccc1O
- Activity (NHDF [2]; time 3.0 day): Active
- Activity (NHDF [1]): Non-Toxic

Structure (SMILES): O=C1c2c(cc(O)c3c(-c4cc(O)cc(O)c4)c(-c4ccc(O)cc4)oc23)O[C@@H](c2ccc(O)cc2)[C@@H]1O
- inhibition [3]: 32%
- Activity (NHDF [2]; time 3 day): 34%
- Activity (NHDF [1]): Non-Toxic

Structure (SMILES): O=C1C[C@@H](CCc2ccc(O)cc2)Oc2ccccc21
- Activity (NHDF [2]; time 3.0 day): Active
- Activity (NHDF [1]): Non-Toxic

Structure (SMILES): COc1cc(CCc2oc3ccccc3c(=O)c2O)ccc1O
- Activity (NHDF [1]): Non-Toxic

Structure (SMILES): COc1cc(CCc2oc3ccccc3c(=O)c2OC)ccc1O
- Activity (NHDF [1]): Non-Toxic

Structure (SMILES): O=C1c2c(cc(O)c3c2O[C@H](c2ccc(O)cc2)[C@H]3c2cc(O)cc(O)c2)O[C@@H](c2ccc(O)c(O)c2)[C@@H]1O
- Activity (NHDF [1]): Non-Toxic

Structure (SMILES): COc1c(CCc2cccc(O)c2)oc2ccccc2c1=O
- Activity (NHDF [1]): Non-Toxic
